These results are taken from patent US7090853B2, “Noscapine derivatives as adjuvant compositions and methods of use thereof” (Emory University, priority 1999, dated 2006).

“Also recorded” adds a separate entry of the source.

The subject of data set [1] is solid lymphoid tumors. As to the kind of experiment: Apoptosis in solid lymphoid tumors induced in mice (H&E microscopy). Type of data set: in vivo. Conditions: Haemotoxline and Eosine stained cells.
The subject of data set [2] is lymphocyte cells. Briefly: Apoptosis: oligonucleosomal DNA fragmentation, DAPI staining and nick end labeling. Type of data set: cell-based. To be noted: 20 μM Noscapine, 0 to 24 hr. The method, then:
Oligonucleosomal fragmentation of genomic DNA was determined according to Walton, M. I. et. al., Cancer. Res. 53, 1853 (1993). An aliquot of 3.3×10^6 cells in 10 ml medium was incubated with 20 μM Noscapine ([…] DMSO solution) for different time periods ranging from 0 to 24 hr. At the end of incubation, cells were pelleted and washed twice with ice cold PBS, and lysed in 250 μl 1% (v/v) NP 40 detergent containing 0.5 mg/ml proteinase K in PBS solution on ice for 60 min. Samples were centrifuged, and the supernatants were removed and incubated with 5 μl 10 mg/ml RNase A at 37° C. for 40 min. An aliquot of 1 ml anhydrous ethanol was added, tubes were placed at −20° C. for 20 min., then centrifuged to pellet DNA. After the samples were dry, the same amount of DNA (10 μg) was electrophoresed at 80V for 3 hr. through a 2% agarose gel containing ethidium bromide in TAB buffer. DNA bands were visualized under […]. […]
Morphological changes in the nuclear chromatin of cells undergoing apoptosis were detected by staining with 4′,6-diamidino-2-phenylindole (DAPI). […] Following 15 min. incubation at room temperature, a 10 μl aliquot was placed on a glass slide, and 400 cells per slide were scored for the incidence of apoptotic chromatin changes with a fluorescence microscope. […] After the slides were rinsed with PBS for another 3 times, coverslips were mounted and analyzed with a light microscope.

The target in data set [3] is T1, bovine brain tubulin (Bos taurus, UniProt P81947+Q6B856). As to the kind of experiment: Fluorescence titration of tubulin binding (Scatchard plot). The method, then:
(§1) Phosphocellulose purified bovine brain tubulin was employed throughout these biophysical experiments. Fluorescence titration for determining binding constants was performed according to Peyrot, V. et al., Biochemistry 31, 11125 (1992). […], at room temperature, 2 μM tubulin in 100 mM PIPES, 2 mM EGTA, 1 mM MgCl2 was excited at 278 nm, and the fluorescence emission spectra were recorded with bandwidths […]. The fluorescence emission intensity of noscapine at this excitation wavelength was negligible and at the concentration of noscapine used it gave no appreciable inner filter effect. The concentration of noscapine was raised in increments of 0.5 μM, until the decrease in the fluorescence intensity was saturated. The value of the dissociation constant and the number of sites were obtained from Scatchard plots using the equation, r/[L]free=n/K^d−r/Kd, where r is the ratio of the concentration of bound ligand to the total protein concentration and n is the number of binding sites. […] Microtubule assembly was recorded on a spectrophotometer with thermocontroler, The cuvettes (0.4 cm path) containing 100 mM PIPES, 2 mM EGTA, 1 mM MgCl2 and 1 mM GTP (G-PEM buffer), and 20 μM noscapine/DMSO were kept at room temperature before addition of tubulin and shifting to 37° C. […] The assembly was monitored by measuring the changes in turbidity at […]. intervals. […]

The target in data set [4] is T1, bovine brain tubulin. Briefly: Microtubule assembly, turbidity at 350 nm. Conditions: 20 μM noscapine, G-PEM buffer, 37° C. Type of data set: biochemical. The method, then:
as §1

For data set [5], the system named is E.G7-OVA cells. As to the kind of experiment: Inhibition of E.G7-OVA tumor growth, i.p. or i.g. dosing. The class given is in vivo, C57BL/6 mice. Here is the method:
C57BL/6 mice were injected subcutaneously in the right flank with 2×10^6 E.G7-OVA cells. Three days later, mice were injected intraperitoneally, every day for three weeks, either with 200 μl saline (n=10), or with 3 mg noscapine dissolved in 200 μl saline (n=10). Third group of mice (n=10) was fed 3 mg noscapine via intragastric (i.g.) intubation using a 1 ml syringe fitted with a 20 gauge stainless steel ball point needle. After three weeks, all mice were sacrificed by cervical dislocation. Tumors were removed and weighed. Tumor weights were individually plotted and comparisons between control and treatment groups were analyzed by the Student's t test.

A short description of data set [6]: Histology and general toxicity in noscapine-treated mice. Type of data set: in vivo, B6 mice. Here is the method:
FIGS. 3A–3I show B6 mice were injected subcutaneously with 2×10^6 E.G7-OVA tumor cells and after three days half of the mice were treated continuously with 1.5 or 3.0 mg noscapine/ml of drinking water. All of the untreated mice developed tumors and were euthanized after three weeks. […] Normal B6 mice (A–C) and mice treated for 3 months with noscapine (D–F) were euthanized.
FIGS. 4A–4D show B6 mice were treated with 1.5 mg noscapine/ml in their drinking water or acidified water, as a negative control. One week later mice were injected with OVA in CFA. Mice were sacrificed two weeks later. […] Thus, Noscapine had no detectable toxic effect on lymphoid cells that are proliferating in response to immunization. […] The response of the gut to Noscapine is one of mild irritation. […]

Data set [7] has as its system human bladder tumors. Conditions: nude mice; cited from earlier work.

T1 sequence (P81947 whole entry): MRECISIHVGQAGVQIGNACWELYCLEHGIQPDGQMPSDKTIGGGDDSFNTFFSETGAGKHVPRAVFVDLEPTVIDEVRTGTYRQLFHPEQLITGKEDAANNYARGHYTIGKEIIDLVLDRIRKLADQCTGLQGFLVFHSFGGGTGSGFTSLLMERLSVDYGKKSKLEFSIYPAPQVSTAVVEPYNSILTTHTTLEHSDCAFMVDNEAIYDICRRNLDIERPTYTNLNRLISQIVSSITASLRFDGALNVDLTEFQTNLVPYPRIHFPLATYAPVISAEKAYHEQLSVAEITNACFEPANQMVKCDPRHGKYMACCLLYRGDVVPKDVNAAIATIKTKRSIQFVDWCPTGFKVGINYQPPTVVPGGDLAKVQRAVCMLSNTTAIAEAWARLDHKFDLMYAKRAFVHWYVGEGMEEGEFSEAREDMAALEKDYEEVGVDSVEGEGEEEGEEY
T1 sequence (Q6B856 whole entry): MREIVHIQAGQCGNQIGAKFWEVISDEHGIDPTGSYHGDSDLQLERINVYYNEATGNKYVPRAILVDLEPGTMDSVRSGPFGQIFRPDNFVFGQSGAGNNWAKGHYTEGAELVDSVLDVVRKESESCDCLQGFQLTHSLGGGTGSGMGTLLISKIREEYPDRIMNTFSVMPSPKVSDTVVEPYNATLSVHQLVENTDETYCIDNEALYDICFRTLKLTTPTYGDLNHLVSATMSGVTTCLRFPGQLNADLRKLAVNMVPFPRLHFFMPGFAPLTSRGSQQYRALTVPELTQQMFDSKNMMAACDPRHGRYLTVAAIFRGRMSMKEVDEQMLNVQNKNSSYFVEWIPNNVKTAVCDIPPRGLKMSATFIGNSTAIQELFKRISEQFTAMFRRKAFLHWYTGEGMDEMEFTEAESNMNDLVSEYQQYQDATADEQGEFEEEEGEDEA

Turning to `COc1ccc2c(c1OC)C(=O)O[C@@H]2[C@H]1c2c(cc3c(c2OC)OCO3)CCN1C` [Noscapine], the “apoptotic morphologies in tumor cells” value in data set [1] is listed as “many cells in noscapine treated mice with apoptotic morphologies”. Besides, the “DNA degradation (gel electrophoresis of fragmented genomic DNA, staining)” value in data set [2] is “progressive DNA degradation with increasing time of noscapine treatment”. Also, in data set [3] (Scatchard plot), the stoichiometry is 0.95±0.02 noscapine molecule per complex of tubulin subunit. Further, the “quenching of tubulin fluorescence” value in data set [3] (excitation 278 nm) is given as “fluorescence quenching of tubulin”. The “tubulin assembly (absorbance at 350 nm)” value in data set [4] is given as “promotes tubulin assembly”. Also, in data set [5] (3 mg noscapine i.p. or i.g. every day for three weeks, vs saline), the tumor weight result is listed as “significantly reduced tumor weight”. The “tumor cell growth and apoptosis of E.G7-OVA in vivo” value in data set [5] (given parenterally or by gastric gavage) was “arrested tumor cell growth and induced apoptosis”. Further, the “histology of small intestine” value in data set [6] (1.5 mg noscapine/ml drinking water vs acidified water) is “mild edema of the villi and goblet cell hyperplasia; also recorded: edema, increased frequency of goblet cells, and prominent crypt cells”. Besides, the “histology of spleen / lymph nodes” value in data set [6] (1.5 mg noscapine/ml drinking water vs acidified water, immunized with OVA in CFA) was “no alterations from control mice; also recorded: no significant differences”. Also, the liver inflammation entry in data set [6] (3.0 mg dose of noscapine) was “few small areas of inflammation”. In addition, the “histological evidence of toxicity to the kidney, liver, or heart” value in data set [6] (mouse, in vivo) is recorded as “no significant histological evidence of toxicity”. Moreover, in data set [6] (noscapine in drinking water), the “health, body weight and appearance” value is “healthy and had normal weights and appearance; also recorded: healthy and of the same weight as the control mice”. In addition, the “number of mitotic figures in the crypts of the small intestine” value in data set [6] (noscapine in drinking water vs control mice) is reported as “approximately equal”. In data set [6] (treated for 3 months with noscapine in drinking water, H & E), the “histology of heart, kidney and liver” value is reported as “no significant differences”. Moreover, the “regression of human bladder tumors” value in data set [7] is reported as “caused regression”.
